Measurements as given in US9232796B2, “Herbicidal compositions comprising 4-amino-3-chloro-5-fluoro-6-(4-chloro-2-fluoro-3-methoxyphenyl) pyridine-2-carboxylic acid or a derivative thereof and acetyl-CoA carboxylase (ACCase) inhibitors” (DOW AGROSCIENCES LLC, priority 2012, dated 2016).

Key:
[1] = system: ALOMY; assay: Example IV postemergence foliar-applied, greenhouse, cereal crops weeds; format: in vivo, Alopecurus myosuroides Huds.
Method: (§1) Seeds of the desired test plant species were planted in Sun Gro MetroMix® 306 planting mixture, which typically has a pH of 6.0 to 6.8 and an organic matter content of about 30 percent, in plastic pots with a surface area of 103.2 square centimeters (cm^2). When required to ensure good germination and healthy plants, a fungicide treatment and/or other chemical or physical treatment was applied. The plants were grown for 7-36 days in a greenhouse with an approximate 14 hour photoperiod which was maintained at about 18° C. during the day and about 17° C. during the night. Nutrients and water were added on a regular basis and supplemental lighting was provided with overhead metal halide 1000-Watt lamps as necessary. The plants were employed for testing when they reached the second or third true leaf stage.
(§2) Treatments consisted of the benzyl ester of 4-amino-3-chloro-5-fluoro-6-(4-chloro-2-fluoro-3-methoxy-phenyl)pyridine-2-carboxylic acid (Compound A), formulated as an SC, a second cereal herbicide alone and then both in combination.
(§3) Other herbicidal components were applied on an active ingredient basis and included acetyl-CoA carboxylase (ACCase)-inhibiting herbicides clodinafop-propargyl, fenoxaprop-P-ethyl, pinoxaden and tralkoxydim.
(§4) Measured aliquots of benzyl ester of 4-amino-3-chloro-5-fluoro-6-(4-chloro-2-fluoro-3-methoxy-phenyl)pyridine-2-carboxylic acid (Compound A) were placed in 25 milliliter (mL) glass vials and diluted in a volume of 1.25% (v/v) Agri-Dex® crop oil concentrate to obtain stock solutions. Compound requirements are based upon a 12 mL application volume at a rate of 187 liters per hectare (L/ha). Spray solutions of the second cereal herbicide and experimental compound mixtures were prepared by adding the stock solutions to the appropriate amount of dilution solution to form 12 mL spray solution with active ingredients in two- and three-way combinations. Formulated compounds were applied to the plant material with an overhead Mandel track sprayer equipped with an 8002E nozzle calibrated to deliver 187 L/ha over an application area of 0.503 square meters (m^2) at a spray height of 18 inches (46 cm) above average plant canopy. Control plants were sprayed in the same manner with the solvent blank.
The treated plants and control plants were placed in a greenhouse as described above and watered by sub-irrigation to prevent wash-off of the test compounds. After 20-22 days, the condition of the test plants as compared with that of the control plants was determined visually and scored on a scale of 0 to 100 percent where 0 corresponds to no injury and 100 corresponds to complete kill. […]

[2] = system: APESV; assay: as above; format: in vivo, Apera spica-venti (L.) Beauv.
Method: as §1, with “When required to ensure good germination and healthy plants, a fungicide treatment and/or other chemical or physical treatment was applied.” left out
as §2, §3
as §4, with “Spray solutions of the second cereal herbicide and experimental compound mixtures were prepared by adding the stock solutions to the appropriate amount of dilution solution to form 12 mL spray solution with active ingredients in two- and three-way combinations.” left out
The treated plants and control plants were placed in a greenhouse as described above and watered by sub-irrigation to prevent wash-off of the test compounds. After 20-22 days, the condition of the test plants as compared with that of the control plants was determined visually and scored on a scale of 0 to 100 percent where 0 corresponds to no injury and 100 corresponds to complete kill.
Colby's equation was used to determine the herbicidal effects expected from the mixtures (Colby, S. R. 1967. Calculation of the synergistic and antagonistic response of herbicide combinations. Weeds 15:20-22.).
The following equation was used to calculate the expected activity of mixtures containing two active ingredients, A and B: Expected=A+B−(A×B/100)

[3] = Compound A Benzyl Ester 5 gai/ha
[4] = Compound A Benzyl Ester 10 gai/ha

COc1c(Cl)ccc(-c2nc(C(=O)OCc3ccccc3)c(Cl)c(N)c2F)c1F [Compound A Benzyl Ester, benzyl ester of 4-amino-3-chloro-5-fluoro-6-(4-chloro-2-fluoro-3-methoxy-phenyl)pyridine-2-carboxylic acid]
0%: Visual Weed Control (%) - 21 DAA ALOMY Obs [1, 3] | Visual Weed Control (%) - 21 DAA ALOMY Obs [1, 4] | Visual Weed Control (%) - 21 DAA APESV Obs [2, 3] | Visual Weed Control (%) - 21 DAA APESV Obs [2, 4]
